This is an account of results in US20110046142A1, “ANTIBIOTIC COMPOUNDS” (priority 2007, published 2011).

Broadly, the MIC is the smallest concentration in the dilution series that meets the test's criterion for growth inhibition.

Converted amounts (≈) assume the structure as drawn. Read-outs that look alike come from different tables or passages of the source.

Experiment [1] concerns E. coli K12 overexpressing activating enzyme. Kind of experiment: MIC, standard broth microdilution assay, overexpression strains. In kind it is cell-based. On the procedure: (§1) The ASKA strains of interest are validated for functional expression of the enzyme. If the protein is not expressed from a given expression vector the ORF is recloned. A strain overexpressing the activating enzyme from the ASKA library is then tested with the hit compound. If the hit has greater activity against this overexpressing strain as compared to the wild type, this indicates a prodrug. The test is performed in a standard broth microdilution assay for MIC determination. Hits with the lowest wild type MIC are then examined.
(§2) Cells were tested in a standard broth microdilution assay, inoculating 10^5 cells per well of a microtiter plate in LB broth. Overexpression and deletion strains were compared to the appropriate isogenic wild type. IPTG was added at 1 mM to growth medium. Experiments involving nfnB and nfsA strains were performed under anaerobic conditions.
(In general: Broth dilution looks for growth in wells or tubes with falling amounts of substance.)

Experiment [2] has as its system E. coli K12 Δactivating enzyme. Kind of experiment: MIC, standard broth microdilution assay, deletion strains. In kind it is cell-based. The conditions noted are these: Escherichia coli, anaerobic conditions. As to the method:
as §1, §2

In experiment [3] the test system is E. coli K12 wt. Kind of experiment: MIC, standard broth microdilution assay. In kind it is cell-based. The conditions noted are these: LB broth, 10^5 cells per well, 1 mM IPTG. On the procedure:
as §1, §2

The subject of experiment [4] is wild type bacterial strain (E. coli), stationary state. Kind of experiment: Dose-dependent killing of stationary state cells, plating and colony count. In kind it is cell-based. The conditions noted are these: anaerobic, 6 hours incubation, biphasic killing. As to the method:
FIG. 10 is a graphical representation of the dose-dependent killing of E. coli by metronidazole. Stationary phase cells grown in LB medium in the presence of 1 mM IPTG under anaerobic conditions were challenged for 6 hrs with increasing concentrations of metronidazole and then plated on LB agar plates.
The killing ability of metronidazole was examined. The wild type bacterial strain was grown to stationary state under anaerobic conditions, and dose-dependent killing after incubation with metronidazole for 6 hours was detected by plating and colony count (FIG. 10). […] This is the first observation of a sterilizing activity of an antibiotic against a stationary state bacterial population. Previously, it was only possible to kill persisters and sterilize an infection with peracetic acid (FIG. 2); (Spoering et al. (2001) J. Bacteriol. 183:6746-6751).

The subject of experiment [5] is strain overexpressing the activating enzyme, NfnB or NfsA. The description is as above. The conditions noted are these: for sterilization of the population: nfnB^+ strain, limit of detection 6 logs of killing, <10 cells/ml. In kind it is cell-based, E. coli.
Experiment [6] relates to E. coli K12 ΔtolC overexpressing activating enzyme. As to the kind of experiment: MIC, standard broth microdilution assay, tolC deletion (MDR efflux). In kind it is cell-based.
From the text: Prodrugs are activated by activating enzymes into reactive molecules that bind to their targets, creating an irreversible sink. This may lead to insensitivity of the overall process to MDR efflux. In order to test this possibility, an E. coli K12 with a deletion in tolC coding for the outer membrane porin that is a component of the transenvelope MDRs was utilized (Li (2004) Drugs 64:159-204). This strain is highly sensitive to antibiotics (Tegos et al. (2002) Antimicrob. Agents Chemother. 46:3133-3141). […] The substrate specificity of AcrAB is remarkably broad, and includes essentially all small molecular weight amphipathic compounds. The AcrAB substrates include anions (SDS, fatty acids, bile acids), neutral compounds (macrolides, chloramphenicol, tetracyclines) and cations or compounds that can form cations (acridine, quaternary compound antiseptics, fluoroquinolones). AcrAB can extrude a natural broad spectrum antibiotics that evolved for good penetration, chloramphenicol and tetracycline; and also extrude synthetic broad-spectrums, the fluoroquinolones.
as §2

On to `Cc1ncc([N+](=O)[O-])n1CCO` [Metronidazole], for which the “sensitivity of the overexpression strain as compared to the wild type control” value in experiment [1] (E. coli overexpressing NfnB) is given as “greater than 50 fold”. Moreover, the MIC is 8.8 µg/mL (≈ 51.4 µM) in experiment [1] (Escherichia coli); “nfnB^+ 8.8 μg/ml” in experiment [1] (nfnB^+ overexpressing strain, 1 mM IPTG, anaerobic conditions); “nfsA^+ 8.8 μg/ml” in experiment [1] (nfsA^+ overexpressing strain, 1 mM IPTG, anaerobic conditions); 8.8 µg/mL (≈ 51.4 µM) in experiment [1] (nfsA^+ overexpressing strain, 1 mM IPTG, anaerobic conditions, listed as metronidazole); 1120 µg/mL (≈ 6570 µM) in experiment [2] (nfnB^− deletion strain); 2250 µg/mL (≈ 13100 µM) in experiment [2] (nfsA^− deletion strain). In addition, the MIC in experiment [3] (Escherichia coli, K12WT, read-out: MIC) is > 500 µg/mL; in experiment [3], 563 µg/mL (≈ 3290 µM); in experiment [6] (Escherichia coli), 8.8 µg/mL (≈ 51.4 µM); in experiment [6] (ΔtolC, nfsA^+ overexpressing strain), “nfsA^+ 8.8 μg/ml”. Also, the tolerant persister cells entry in experiment [4] was “about 1%”. For the same compound, the figures for the “sterilization of the population” value in experiment [5] and in experiment [5] (listed as metronidazole) were “completely “sterilized”” and “complete sterilization”, respectively. Moreover, the surviving persisters entry in experiment [5] (strain overexpressing NfnB or NfsA, stationary state, 6 hours) was “no surviving persisters were detected”.
